From patent publication US20010051630A1, “Use of hydroxylamine derivatives, and method and preparations for increasing the tolerance of field crops against weather stresses” (priority 1997, published 2001)
Marks after values point to notes of the source that are not given here.

Key:
[1] = tested on: maize of low chilling tolerance (LT) population; experiment: CSVT, maize population of low chilling tolerance (LT); format: in vivo
Protocol: (§1) In this experiment the tolerance of maize, soybean and pepper seeds treated with the active agent against cold was tested. This test imposed temperature and oxygen deficiency stresses on the seeds and was carried out according to Barla-Szabó and Dolinka CSVT (Complex Stressing Vigour Test). For a single test, two hundred seeds were soaked for 48 hours at 25° C. and another 48 hours at 5° C in 150 ml distilled water containing the active agent in 10 mg/l concentration. Following the 96 hours of soaking, the seeds were further germinated between rolled wet paper for 96 hours at 25° C. There were 25 seeds in each roll, the rolls were placed vertically into containers and covered with a plastic bag in order to reduce evaporation. During the whole procedure the seeds were kept in darkness.
(§2) At the end of the experiment the number of normally developing and ungerminated seeds were recorded. The length of the normal seedlings was measured and the average length of the five longest seedlings was calculated. Seedlings longer than 0.33 times the average length of the five longest seedlings were considered to be of high vigour, and low vigour seedlings were shorter than this length.
(§3) In the case of a further experiment with maize of low chilling tolerance (LT) and high chilling tolerance (HT) populations [Ref: P. Landi, E. Frascaroli, A. Lovato; EUPHYTICA 64 21-29 (1992)], the following positive effects were found (Table 3.).

bean cv. Seaway = experiment: Frost tolerance of beans; format: in vivo; settings: −2° C. for 8 hours
Protocol: Seedlings of bean cv. Seaway were cultivated under normal conditions for the first two weeks, then they were treated with 10 mg/liter and 100 mg/liter concentration solutions of the examined active agents 2 and 1 days before the initiation of the frost tolerance experiments. In the experiment, the plants were kept at −2° C. for 8 hours, then grew under normal conditions for I week, and the survival ratio was determined. 4 trays were used for each experiment and 6 seeds were planted in each tray.

HMv09 inbred maize line = experiment: CSVT, seeds soaked in active agent, HMv09 maize; format: in vivo; settings: seeds soaked in 10 mg/l active agent
Protocol: as §1, with “darkness. At the end of the experiment the number of normally developing and ungerminated seeds were recorded. The length of the normal seedlings was measured and the average length of the five longest seedlings was calculated. Seedlings longer than 0.33 times the average length of the five longest seedlings were considered to be of high vigour, and low vigour seedlings were shorter than this length.” for “darkness.”

McCall soybeans [2] = experiment: CSVT, McCall soybeans; format: in vivo, soybean
Protocol: as §1, §2
When applying the CSVT test, the following results were obtained (Table 4.).

soybean cv. Bólyi 44 = experiment: Drought tolerance of soybeans; format: in vivo; settings: 6 days hardening; 50 mg/liter in the water; 4 days without watering, one week regeneration
Protocol: Soybeans of soybean cv. Bólyi 44 were hardened for 6 days by withholding the water. This was followed by two days of watering, and the active agent was applied in the water. The concentration of the solution of the active agent was 50 mg/liter. After a 4-day-long cease of watering and a one week regeneration period, the number of surviving plants was recorded.
Watering was ceased for 10 days for a certain group of plants in the experiment. It was observed that almost every plant perished. Each of the 4 surviving plants had previously been treated with the active agent.

McCall soybeans [3] = experiment: CSVT with PVA-pearled McCall soybeans, relative length; format: in vivo, soybean; settings: 2.5 mg in 1 ml 2.5% PVA per 100 seeds
Protocol: as §1
In a further CSVT experiment also using McCall soybeans, polyvinylalcohol (PVA) was applied for pearling the seeds. The 2.5 mg doses of the active agents were dissolved in 1 ml of 2.5% PVA solution, and this quantity was applied to 100 pieces of seeds. The improvement of the chilling tolerance is observed by the significant elongation of the germ and the roots.

[4] = tested on: maize of high chilling tolerance (HT) population; experiment: CSVT, maize population of high chilling tolerance (HT); format: in vivo
Protocol: as §1, §2, §3

Mo 17 maize inbred line = experiment: Chilling tolerance of maize in a gradient chamber; format: in vivo
Protocol: The experiment was performed using the Mo 17 maize inbred line. The seeds were coated with a 2% solution of the examined compound dissolved in 2 ml polyvinylalcohol before germination, where the above quantity of solution is applied for 100 seeds. The seeds were germinated for 3 days wrapped in wet filter paper, they were sown and then cultivated in gradient chamber for 6 weeks. In the gradient chamber, the temperature was maintained on a scale between 18 and 12° C., with differences of 1° C. This was followed by a one week regeneration at 23/20° C. temperature.
In the experiment, the length of the plants was measured 16, 31 and 43 days after the sowing, and at the end of the experiment the fresh weight of the plants was measured. The experiment was performed on 4 plants at each temperature and by each treatment.

CC(C)(C)NCC(O)CONC(=O)c1cccc(C(F)(F)F)c1.Cl (stereo not shown) [Compound 1, N-[2-hydroxy-3-(1,1-dimethylethyl-amino)propoxy]-3-trifluoromethyl-benzamide monohydrochloride]
Ratio of high vigour plants %, LT [1]: 94* %
Survival (%) (bean cv. Seaway; spraying, 100 mg/l): 40* %
Survival (%) (bean cv. Seaway; watering, 10 mg/l): 25* %
Ratio of high vigour plants (%) (HMv09 inbred maize line): 49* %
Ratio of high vigour plants (%) (McCall soybeans [2]): 43* %
Survival (%) (soybean cv. Bólyi 44): 25* %
Relative length (control = 100), germ (McCall soybeans [3]): 106
Relative length (control = 100), root (McCall soybeans [3]): 128
Ratio of high vigour plants %, HT [4]: 98* %
Length (cm) (Mo 17 maize inbred line; 12° C., 16 days): 5.0 cm
Length (cm) (Mo 17 maize inbred line; 12° C., 31 days): 7.9 cm
FW (g), fresh weight (Mo 17 maize inbred line; 12° C., 43 days): 1.2 g
Length (cm) (Mo 17 maize inbred line; 12° C., 43 days): 18.9 cm
Length (cm) (Mo 17 maize inbred line; 13° C., 16 days): 6.0 cm
Length (cm) (Mo 17 maize inbred line; 13° C., 31 days): 10.1 cm
FW (g), fresh weight (Mo 17 maize inbred line; 13° C., 43 days): 1.0 g
Length (cm) (Mo 17 maize inbred line; 13° C., 43 days): 16.0 cm
Length (cm) (Mo 17 maize inbred line; 14° C., 16 days): 7.6 cm
Length (cm) (Mo 17 maize inbred line; 14° C., 31 days): 15.4 cm
FW (g), fresh weight (Mo 17 maize inbred line; 14° C., 43 days): 2.7 g
Length (cm) (Mo 17 maize inbred line; 14° C., 43 days): 25.9 cm
Length (cm) (Mo 17 maize inbred line; 15° C., 16 days): 10.0 cm
Length (cm) (Mo 17 maize inbred line; 15° C., 31 days): 17.7 cm
FW (g), fresh weight (Mo 17 maize inbred line; 15° C., 43 days): 3.6 g
Length (cm) (Mo 17 maize inbred line; 15° C., 43 days): 28.5 cm
Length (cm) (Mo 17 maize inbred line; 16° C., 16 days): 15.2 cm
Length (cm) (Mo 17 maize inbred line; 16° C., 31 days): 24.8 cm
FW (g), fresh weight (Mo 17 maize inbred line; 16° C., 43 days): 4.5 g
Length (cm) (Mo 17 maize inbred line; 16° C., 43 days): 32.3 cm
Length (cm) (Mo 17 maize inbred line; 17° C., 16 days): 17.0 cm
Length (cm) (Mo 17 maize inbred line; 17° C., 31 days): 27.7 cm
FW (g), fresh weight (Mo 17 maize inbred line; 17° C., 43 days): 5.5 g
Length (cm) (Mo 17 maize inbred line; 17° C., 43 days): 36.5 cm
Length (cm) (Mo 17 maize inbred line; 18° C., 16 days): 13.2 cm
Length (cm) (Mo 17 maize inbred line; 18° C., 31 days): 28.4 cm
FW (g), fresh weight (Mo 17 maize inbred line; 18° C., 43 days): 6.0 g
Length (cm) (Mo 17 maize inbred line; 18° C., 43 days): 37.0 cm
